Assays:
Assay in all cases: stopped-flow CO2 hydration
Assay type in all cases: biochemical
hCA I = target: T1, hCA I (Homo sapiens, UniProt P00915)
T1 construct: gene CA1; recombinant, cytosolic isoform
Method in brief: (§1)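 Recombinant human isozymes, preincubated 10 min at room temperature with inhibitor, were assayed by stopped-flow CO2 hydration (5–10 s, 557 nm, 0.2 mM Phenol Red, 10 mM Hepes pH 7.4, 0.1 M Na2SO4 or NaClO4; substrate CO2-saturated water, 25 °C). At least seven inhibitor concentrations down to 0.01 nM were tested in triplicate; each value is the mean of at least three determinations. Ki was fitted by non-linear least squares with the Cheng-Prusoff equation.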

hCA IV = target: T2, hCA IV (Homo sapiens, UniProt P22748)
T2 construct: gene CA4
T2 sequence (P22748 19-284): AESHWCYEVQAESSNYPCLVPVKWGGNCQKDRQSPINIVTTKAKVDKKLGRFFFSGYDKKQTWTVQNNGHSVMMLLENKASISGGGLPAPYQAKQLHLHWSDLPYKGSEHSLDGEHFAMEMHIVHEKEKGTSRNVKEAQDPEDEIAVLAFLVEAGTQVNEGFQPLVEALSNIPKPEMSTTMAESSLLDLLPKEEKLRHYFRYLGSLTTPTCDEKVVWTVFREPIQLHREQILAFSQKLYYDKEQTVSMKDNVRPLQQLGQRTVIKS
Method in brief: as §1

hCA II = target: T3, hCA II (Homo sapiens, UniProt P00918); details: read-out: hCAII
T3 construct: gene CA2; recombinant, cytosolic isoform
Method in brief: as §1

hCA IX = target: T4, hCA IX (Homo sapiens, UniProt Q16790)
T4 construct: gene CA9; recombinant, transmembrane isoform
Method in brief: as §1

T1 sequence (P00915 2-261): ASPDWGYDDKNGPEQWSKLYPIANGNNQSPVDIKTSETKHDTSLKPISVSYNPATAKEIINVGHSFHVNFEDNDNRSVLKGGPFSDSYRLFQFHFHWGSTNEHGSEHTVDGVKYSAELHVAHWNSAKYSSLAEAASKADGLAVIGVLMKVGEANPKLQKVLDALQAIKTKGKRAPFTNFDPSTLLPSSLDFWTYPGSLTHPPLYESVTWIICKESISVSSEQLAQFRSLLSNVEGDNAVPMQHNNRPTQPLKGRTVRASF

| Ki (hCA I) | Ki (hCA IV) | Ki (hCA II) | Ki (hCA IX) | Compound |
| --- | --- | --- | --- | --- |
| 426 nM | 5310 nM | 329 nM | 30.8 nM | NS(=O)(=O)c1cc(C(=O)NCc2cn(-c3cccc(F)c3)nn2)ccc1F [6q, 4-Fluoro-N-((1–(3-fluorophenyl)-1H-1,2,3-triazol-4-yl)methyl)-3-sulfamoylbenzamide] |
| 836 nM | 215 nM | 260 nM | 67.5 nM | Cc1ccc(-n2cc(CNC(=O)c3ccc(F)c(S(N)(=O)=O)c3)nn2)cc1 [6r, 4-Fluoro-3-sulfamoyl-N-((1-(p-tolyl)-1H-1,2,3-triazol-4-yl)methyl)benzamide] |
| 696 nM | 3400 nM | 402 nM | 67.9 nM | N#Cc1cccc(-n2cc(CNC(=O)c3ccc(F)c(S(N)(=O)=O)c3)nn2)c1 [6s, N-((1–(3-cyanophenyl)-1H-1,2,3-triazol-4-yl)methyl)-4-fluoro-3-sulfamoylbenzamide] |
| 696 nM | 515 nM | 372 nM | 71.5 nM | NS(=O)(=O)c1cc(C(=O)NCc2cn(-c3ccc(Br)cc3)nn2)ccc1F [6t, N-((1–(4-bromophenyl)-1H-1,2,3-triazol-4-yl)methyl)-4-fluoro-3-sulfamoylbenzamide] |

From publication PMC6598542, “Synthesis of a new series of 3-functionalised-1-phenyl-1,2,3-triazole sulfamoylbenzamides as carbonic anhydrase I, II, IV and IX inhibitors” (Journal of Enzyme Inhibition and Medicinal Chemistry, 2019)
